From patent publication US20230303549A1, “SUBSTITUTED HETEROARYLOXYPYRIDINES, THE SALTS THEREOF AND THEIR USE AS HERBICIDAL AGENTS” (Bayer Aktiengesellschaft, priority 2020, published 2023)

Key:
Assay type in all cases: in vivo
[1] = test system: Abutilon theophrasti (ABUTH); test: Post-emergence herbicidal efficacy at 320 g/ha, greenhouse pot test; details: visual rating vs untreated control after about 3 weeks
Summary of the method: (§1)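 Weeds sown in sandy loam and grown in greenhouse, sprayed at one-leaf stage (2–3 weeks after sowing) with WP or EC formulations plus 0.5% additive in 600 L/ha water. Visual activity rated after about 3 weeks against untreated controls (100% = plants dead, 0% = like control).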

[2] = test system: Amaranthus retroflexus (AMARE); test: as above; details: visual rating vs untreated control after about 3 weeks
Summary of the method: as §1

Bassia scoparia (KCHSC) [3] = test: as above; details: visual rating vs untreated control after about 3 weeks
Summary of the method: as §1

Poa annua (POAAN) [4] = test: as above; details: visual rating vs untreated control after about 3 weeks
Summary of the method: as §1

Stellaria media (STEME) [5] = test: as above; details: visual rating vs untreated control after about 3 weeks
Summary of the method: as §1

Veronica persica (VERPE) [6] = test: as above; details: 320 g/ha, visual rating vs untreated control after about 3 weeks
Summary of the method: as §1

[7] = test system: Amaranthus retroflexus (AMARE); test: Post-emergence herbicidal efficacy at 80 g/ha, greenhouse pot test; details: visual rating vs untreated control after about 3 weeks
Summary of the method: (§2)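 Sown in sandy loam, treated 2–3 weeks after sowing at one-leaf stage with WP or EC formulations sprayed post-emergence in water (600 l/ha) plus 0.5% additive. Kept in greenhouse ~3 weeks, then activity scored visually vs untreated controls (100% = plants dead, 0% = like control).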

Setaria viridis (SETVI) [8] = test: as above; details: visual rating vs untreated control after about 3 weeks
Summary of the method: as §2

[9] = test system: Abutilon theophrasti (ABUTH); test: Pre-emergence herbicide efficacy at 320 g/ha, greenhouse pot test; details: visual scoring vs untreated control after about 3 weeks
Summary of the method: (§3)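 Pre-emergence, greenhouse: sandy loam pots, seeds covered with soil; compound as WP/EC in water + 0.5% additive, 600 L/ha spray volume onto covering soil. Readout: visual % effect at ~3 wk vs untreated (100% = dead, 0% = as control).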

[10] = test system: Amaranthus retroflexus (AMARE); test: as above; details: visual scoring vs untreated control after about 3 weeks
Summary of the method: as §3

Bassia scoparia (KCHSC) [11] = test: as above; details: dosage 1280 g/ha in Table C6, visual scoring after about 3 weeks
Summary of the method: as §3

[12] = test system: Echinochloa crus-galli (ECHCG); test: as above; details: visual scoring vs untreated control after about 3 weeks
Summary of the method: as §3

[13] = test system: Matricaria inodora (MATIN); test: as above; details: visual scoring vs untreated control after about 3 weeks
Summary of the method: as §3

Poa annua (POAAN) [14] = test: as above; details: visual scoring vs untreated control after about 3 weeks
Summary of the method: as §3

Setaria viridis (SETVI) [15] = test: as above; details: visual scoring vs untreated control after about 3 weeks
Summary of the method: as §3

Stellaria media (STEME) [16] = test: as above; details: visual scoring vs untreated control after about 3 weeks
Summary of the method: as §3

Veronica persica (VERPE) [17] = test: as above; details: visual scoring vs untreated control after about 3 weeks
Summary of the method: as §3

[18] = test system: Abutilon theophrasti (ABUTH); test: Pre-emergence herbicide efficacy at 80 g/ha, greenhouse pot test; details: visual scoring vs untreated control after about 3 weeks
Summary of the method: (§4)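 Seeds were sown in pots and covered with soil, then the compound (WP or EC formulation) was sprayed onto the soil surface as an aqueous suspension or emulsion with 0.5% additive. Pots were kept in a greenhouse, and after about 3 weeks activity was scored visually versus untreated controls (100% = plants dead, 0% = like control).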

[19] = test system: Alopecurus myosuroides (ALOMY); test: as above; details: visual scoring vs untreated control after about 3 weeks
Summary of the method: as §4

[20] = test system: Amaranthus retroflexus (AMARE); test: as above; details: visual scoring vs untreated control after about 3 weeks
Summary of the method: as §4

[21] = test system: Echinochloa crus-galli (ECHCG); test: as above; details: visual scoring vs untreated control after about 3 weeks
Summary of the method: as §4

Ipomoea purpurea (PHBPU) = test: as above; details: visual scoring vs untreated control after about 3 weeks
Summary of the method: as §4

[22] = test system: Matricaria inodora (MATIN); test: as above; details: visual scoring vs untreated control after about 3 weeks
Summary of the method: as §4

[23] = test system: Polygonum convolvulus (POLCO); test: as above; details: visual scoring vs untreated control after about 3 weeks
Summary of the method: as §4

Setaria viridis (SETVI) [24] = test: as above; details: visual scoring vs untreated control after about 3 weeks
Summary of the method: as §4

Veronica persica (VERPE) [25] = test: as above; details: visual scoring vs untreated control after about 3 weeks
Summary of the method: as §4

Viola tricolor (VIOTR) [26] = test: as above; details: visual scoring vs untreated control after about 3 weeks
Summary of the method: as §4

[27] = test system: Alopecurus myosuroides (ALOMY); test: Pre-emergence herbicide efficacy at 320 g/ha, greenhouse pot test; details: visual scoring vs untreated control after about 3 weeks
Summary of the method: as §3

[28] = test system: Alopecurus myosuroides (ALOMY); test: Post-emergence herbicidal efficacy at 320 g/ha, greenhouse pot test; details: visual rating vs untreated control after about 3 weeks
Summary of the method: as §1

[29] = test system: Echinochloa crus-galli (ECHCG); test: as above; details: visual rating vs untreated control after about 3 weeks
Summary of the method: as §1

[30] = test system: Alopecurus myosuroides (ALOMY); test: Post-emergence herbicidal efficacy at 80 g/ha, greenhouse pot test; details: visual rating vs untreated control after about 3 weeks
Summary of the method: as §2

Viola tricolor (VIOTR) [31] = test: as above; details: visual rating vs untreated control after about 3 weeks
Summary of the method: as §2

[32] = test system: Digitaria sanguinalis (DIGSA); test: Pre-emergence herbicide efficacy at 320 g/ha, greenhouse pot test; details: visual scoring vs untreated control after about 3 weeks
Summary of the method: as §3

[33] = test system: Polygonum convolvulus (POLCO); test: Post-emergence herbicidal efficacy at 80 g/ha, greenhouse pot test; details: visual rating vs untreated control after about 3 weeks
Summary of the method: as §2

Lolium rigidum (LOLRI) = test: Pre-emergence herbicide efficacy at 320 g/ha, greenhouse pot test; details: visual scoring vs untreated control after about 3 weeks
Summary of the method: as §3

| SMILES | Post-emergence efficacy against Abutilon theophrasti (ABUTH) [1] | Post-emergence efficacy against Amaranthus retroflexus (AMARE) [2] | Post-emergence efficacy against Poa annua (POAAN) (Poa annua (POAAN) [4]) | Post-emergence action against Stellaria media (STEME) (Stellaria media (STEME) [5]) | Post-emergence efficacy against Veronica persica (VERPE) (Veronica persica (VERPE) [6]) | Post-emergence efficacy against Amaranthus retroflexus (AMARE) [7] | Pre-emergence efficacy against Abutilon theophrasti (ABUTH) [9] | Pre-emergence efficacy against Amaranthus retroflexus (AMARE) [10] | Pre-emergence efficacy against Bassia scoparia (KCHSC) (Bassia scoparia (KCHSC) [11]) | Pre-emergence efficacy against Echinochloa crus-galli (ECHCG) [12] | Pre-emergence efficacy against Matricaria inodora (MATIN) [13] | Pre-emergence efficacy against Poa annua (POAAN) (Poa annua (POAAN) [14]) | Pre-emergence efficacy against Setaria viridis (SETVI) (Setaria viridis (SETVI) [15]) | Pre-emergence efficacy against Stellaria media (STEME) (Stellaria media (STEME) [16]) | Pre-emergence efficacy against Veronica persica (VERPE) (Veronica persica (VERPE) [17]) | Pre-emergence efficacy against Abutilon theophrasti (ABUTH) [18] | Pre-emergence efficacy against Amaranthus retroflexus (AMARE) [20] | Pre-emergence efficacy against Matricaria inodora (MATIN) [22] | Pre-emergence efficacy against Setaria viridis (SETVI) (Setaria viridis (SETVI) [24]) | Pre-emergence efficacy against Viola tricolor (VIOTR) (Viola tricolor (VIOTR) [26]) | also measured |
| --- | --- | --- | --- | --- | --- | --- | --- | --- | --- | --- | --- | --- | --- | --- | --- | --- | --- | --- | --- | --- | --- |
| Cc1cc(C)c(-n2cc(Br)cn2)c(Oc2ncc(F)cn2)n1 [Example I-277] | 90% | 100% | 90% | 90% | 90% | 80% | 100% | 100% | 100% | 100% | 90% | 100% | 100% | 100% | 100% | 90% | 100% | 100% | 100% | 100% | Post-emergence efficacy against Bassia scoparia (KCHSC) (Bassia scoparia (KCHSC) [3]): 100%; Post-emergence efficacy against Setaria viridis (SETVI) (Setaria viridis (SETVI) [8]): 80%; Pre-emergence efficacy against Alopecurus myosuroides (ALOMY) [19]: 80%; Pre-emergence efficacy against Echinochloa crus-galli (ECHCG) [21]: 100%; Pre-emergence efficacy against Ipomoea purpurea (PHBPU) (Ipomoea purpurea (PHBPU)): 100%; Pre-emergence efficacy against Polygonum convolvulus (POLCO) [23]: 100%; Pre-emergence efficacy against Veronica persica (VERPE) (Veronica persica (VERPE) [25]): 80% |
| Cc1cc(C)c(-c2cc(C(F)F)no2)c(Oc2ncc(C(F)(F)F)cn2)n1 [Example I-45] | 90% | 100% | 100% | 100% | 100% | 80% | 100% | 100% | 100% | 100% | 100% | 100% | 100% | 100% | 100% | 90% | 100% |  | 90% | 90% | Post-emergence efficacy against Bassia scoparia (KCHSC) (Bassia scoparia (KCHSC) [3]): 90%; Post-emergence efficacy against Setaria viridis (SETVI) (Setaria viridis (SETVI) [8]): 80%; Pre-emergence efficacy against Alopecurus myosuroides (ALOMY) [27]: 100%; Pre-emergence efficacy against Echinochloa crus-galli (ECHCG) [21]: 80%; Pre-emergence efficacy against Polygonum convolvulus (POLCO) [23]: 80%; Pre-emergence efficacy against Veronica persica (VERPE) (Veronica persica (VERPE) [25]): 80% |
| Cc1cc(C)c(-c2cc(C(F)(F)F)on2)c(Oc2ncc(Cl)cn2)n1 [Example I-7] |  | 90% |  | 100% | 100% | 80% | 100% | 100% |  | 100% | 100% | 100% | 100% | 100% | 100% | 100% | 100% | 90% | 100% | 100% | Post-emergence efficacy against Alopecurus myosuroides (ALOMY) [28]: 90%; Post-emergence efficacy against Echinochloa crus-galli (ECHCG) [29]: 90%; Post-emergence efficacy against Alopecurus myosuroides (ALOMY) [30]: 90%; Post-emergence efficacy against Viola tricolor (VIOTR) (Viola tricolor (VIOTR) [31]): 90%; Pre-emergence efficacy against Alopecurus myosuroides (ALOMY) [27]: 90%; Pre-emergence efficacy against Digitaria sanguinalis (DIGSA) [32]: 100%; Pre-emergence efficacy against Alopecurus myosuroides (ALOMY) [19]: 100%; Pre-emergence efficacy against Polygonum convolvulus (POLCO) [23]: 90%; Pre-emergence efficacy against Veronica persica (VERPE) (Veronica persica (VERPE) [25]): 90% |
| Cc1cc(C)c(-n2cc(I)cn2)c(Oc2ncc(F)cn2)n1 [Example I-294] | 90% | 100% | 90% | 100% | 100% | 80% | 100% | 100% | 100% | 100% | 100% | 100% | 100% | 100% | 100% | 90% | 100% | 100% | 100% | 100% | Post-emergence efficacy against Polygonum convolvulus (POLCO) [33]: 80%; Post-emergence efficacy against Setaria viridis (SETVI) (Setaria viridis (SETVI) [8]): 90%; Pre-emergence efficacy against Lolium rigidum (LOLRI) (Lolium rigidum (LOLRI)): 100%; Pre-emergence efficacy against Alopecurus myosuroides (ALOMY) [19]: 90%; Pre-emergence efficacy against Echinochloa crus-galli (ECHCG) [21]: 90%; Pre-emergence efficacy against Ipomoea purpurea (PHBPU) (Ipomoea purpurea (PHBPU)): 100%; Pre-emergence efficacy against Polygonum convolvulus (POLCO) [23]: 90% |
| Cc1cc(C)c(-c2cc(C(F)F)no2)c(Oc2ccc(Cl)cn2)n1 [Example I-43] | 90% | 100% | 90% | 100% | 100% |  | 100% | 100% | 100% | 90% | 90% | 100% | 100% | 100% | 100% |  | 100% | 90% | 90% | 80% | Post-emergence efficacy against Alopecurus myosuroides (ALOMY) [28]: 90%; Post-emergence efficacy against Echinochloa crus-galli (ECHCG) [29]: 90%; Post-emergence efficacy against Viola tricolor (VIOTR) (Viola tricolor (VIOTR) [31]): 80%; Pre-emergence efficacy against Veronica persica (VERPE) (Veronica persica (VERPE) [25]): 90% |
